From ChEMBL document CHEMBL1131083, “Tipranavir (PNU-140690): a potent, orally bioavailable nonpeptidic HIV protease inhibitor of the 5,6-dihydro-4-hydroxy-2-pyrone sulfonamide class” (J Med Chem, 1998)

How the values were obtained:
[1] = target: Human immunodeficiency virus type 1 protease (Human immunodeficiency virus 1, UniProt Q72874); experiment: Inhibitory activity against HIV-1 protease in tandem assay.
[2] = target: Human immunodeficiency virus type 1 protease (Human immunodeficiency virus 1) (UniProt Q72874); experiment: Inhibition of HIV-1 protease in a cell culture assay using HIV-1 IIIB infected H9 cells.; assay type: functional, cell-based
[3] = Inhibition of HIV-1 protease in a cell culture assay using HIV-1 IIIB infected H9 cells.
[4] = tested on: H9; experiment: Inhibitory activity against HIV-1 Protease in a cell culture assay using HIV-1 IIIB infected H9 cells at 3 uM; assay type: functional; settings: Homo sapiens
[5] = target: Human immunodeficiency virus type 1 protease (Human immunodeficiency virus 1) (UniProt Q72874); experiment: Inhibitory activity against HIV-1 Protease in tandem assay; settings: concentration not given here
[6] = tested on: H9; experiment: Inhibitory activity against HIV-1 Protease in a cell culture assay using HIV-1 IIIB infected H9 cells at 1 uM; assay type: functional; settings: Homo sapiens

| SMILES | Ki [1] [nM] | IC90 [2] [nM] | further results |
| --- | --- | --- | --- |
| CCCC1(CCc2ccccc2)CC(=O)C(C(CC)c2cccc(NS(=O)(=O)c3cn(C)cn3)c2)=C(O)O1 (stereo not given) | 1.2 |  |  |
| CCC[C@@]1(CCc2ccccc2)CC(O)=C([C@H](CC)c2cccc(NS(=O)(=O)c3ccc(C#N)cn3)c2)C(=O)O1 |  |  | IC50 [3]: 40 nM |
| CCC(C1=C(O)OC(C23C[C@H]4C[C@@H](C2)C[C@@H](C3)C4)CC1=O)c1cccc(NS(=O)(=O)c2cn(C)cn2)c1 (stereo not given in full) | 23 |  |  |
| CCC[C@@]1(CCc2ccccc2)CC(O)=C([C@H](CC)c2cccc(NS(=O)(=O)c3ccc(C(F)(F)F)cn3)c2)C(=O)O1 [TIPRANAVIR] | 0.008 |  | IC50 [3]: 30 nM |
| CCCC1(CCC)CC(=O)C(Cc2cccc(NS(=O)(=O)c3cn(C)cn3)c2)=C(O)O1 |  |  | inhibition at 3 µM [4]: 5%; inhibition [5]: 50% |
| CCC[C@]1(CCc2ccccc2)CC(=O)C([C@H](CC)c2cccc(NS(=O)(=O)c3cn(C)cn3)c2)=C(O)O1 | 0.12 | 1000 |  |
| CCCC1(CCc2ccccc2)CC(=O)C(C(CC)c2cccc(NS(=O)(=O)c3ccc(C#N)cc3)c2)=C(O)O1 (stereo not given) | 8.2 |  | IC50 [3]: 1100 nM |
| CCCC1(CCc2ccccc2)CC(=O)C(Cc2cccc(NS(=O)(=O)c3cn(C)cn3)c2)=C(O)O1 (stereo not given) | 13 |  | inhibition at 1 µM [6]: 0% |
| CCCC1(CCc2ccccc2)CC(=O)C(C(c2cccc(NS(=O)(=O)c3ccc(C#N)cc3)c2)C(C)(C)C)=C(O)O1 (stereo not given) | 12 | 3000 |  |
| CCC[C@@]1(CCc2ccccc2)CC(=O)C([C@@H](CC)c2cccc(NS(=O)(=O)c3ccc(C(F)(F)F)cn3)c2)=C(O)O1 (stereo in doubt; 39c) |  |  | IC50 [3]: 1700 nM |
| CCCC1(CCc2ccccc2)CC(=O)C(C(CC)c2cccc(NS(=O)(=O)c3ccc(F)cc3)c2)=C(O)O1 (stereo not given) | 6.1 |  | IC50 [3]: 1200 nM |
| CCC[C@@]1(CCc2ccccc2)CC(=O)C([C@H](CC)c2cccc(NS(=O)(=O)c3cn(C)cn3)c2)=C(O)O1 | 0.06 | 560 |  |
| CCC(C1=C(O)OC(COCCOCCOC)(COCCOCCOC)CC1=O)c1cccc(NS(=O)(=O)c2cn(C)cn2)c1 (stereo not given) | 28 |  | inhibition at 3 µM [4]: 0% |
| CCC[C@@]1(CCc2ccccc2)CC(=O)C([C@@H](CC)c2cccc(NS(=O)(=O)c3cn(C)cn3)c2)=C(O)O1 | 0.3 | > 1000 |  |
| CCCC1(CCc2ccccc2)CC(=O)C(C(CC)c2cccc(NS(=O)(=O)CCC)c2)=C(O)O1 (stereo not given) | > 1 |  |  |
| CCC[C@@]1(CCc2ccccc2)CC(=O)C([C@@H](CC)c2cccc(NS(=O)(=O)c3ccc(C(F)(F)F)cn3)c2)=C(O)O1 (stereo in doubt; 39d) |  |  | IC50 [3]: 410 nM |
| CCCC1(CCc2ccccc2)CC(=O)C(C(c2cccc(NS(=O)(=O)c3ccc(C(F)(F)F)cn3)c2)C(C)(C)C)=C(O)O1 (stereo not given) | 4.3 | 990 |  |
| CCCC1(CCc2ccccc2)CC(=O)C(C(CC)c2cccc(NS(=O)(=O)c3ccccc3)c2)=C(O)O1 (stereo not given) |  |  | IC50 [3]: 1600 nM |

More lines, main results first:

| Ki [1] [nM] | IC90 [2] [nM] | SMILES | further results |
| --- | --- | --- | --- |
| 0.87 | 1000 | CCCC1(CCC)CC(=O)C(C(c2cccc(NS(=O)(=O)c3cn(C)cn3)c2)C(C)(C)C)=C(O)O1 (stereo not given) |  |
| 2.3 | > 3000 | CCCC1(CCc2ccccc2)CC(=O)C(C(c2cccc(NS(=O)(=O)c3ccc([N+](=O)[O-])cn3)c2)C(C)(C)C)=C(O)O1 (stereo not given) |  |
| 1.8 | 2000 | CCCC1(CCC)CC(=O)C(C(CC)c2cccc(NS(=O)(=O)c3cn(C)cn3)c2)=C(O)O1 (stereo not given) |  |
| 3 | 2000 | CCCC1(CCc2ccc(F)cc2)CC(=O)C(C(CC)c2cccc(NS(=O)(=O)c3cn(C)cn3)c2)=C(O)O1 (stereo not given) |  |
| 1 | 2000 | CCC(C1=C(O)OC(CCc2ccccc2)(CCc2ccccc2)CC1=O)c1cccc(NS(=O)(=O)c2cn(C)cn2)c1 (stereo not given) |  |
| 0.1 | 1000 | CCC[C@@]1(CCc2ccccc2)CC(=O)C([C@@H](CC)c2cccc(NS(=O)(=O)c3ccc(C#N)cn3)c2)=C(O)O1 |  |
| 1.2 | 690 | CCCC1(CCc2ccccc2)CC(=O)C(C(c2cccc(NS(=O)(=O)c3cn(C)cn3)c2)C(C)(C)C)=C(O)O1 (stereo not given) |  |
| 0.018 | 840 | CCC[C@]1(CCc2ccccc2)CC(=O)C(C(CC)c2cccc(NS(=O)(=O)c3ccc(C(F)(F)F)cn3)c2)=C(O)O1 (stereo not given in full) |  |
| 3.1 |  | CCCC1(CCc2ccccc2)CC(=O)C(C(CC)c2cccc(NS(=O)(=O)c3cccc4cccnc34)c2)=C(O)O1 (stereo not given) | IC50 [3]: 1000 nM |
| 1.9 | 340 | CCCC1(CCc2ccccc2)CC(=O)C(C(c2cccc(NS(=O)(=O)c3ccc(C#N)cn3)c2)C(C)(C)C)=C(O)O1 (stereo not given) |  |
| 3 | 7400 | CCC(C1=C(O)OC(CC(C)C)(CC(C)C)CC1=O)c1cccc(NS(=O)(=O)c2cn(C)cn2)c1 (stereo not given) |  |
| 0.1 | 470 | CCCC1(CCc2ccccc2)CC(=O)C(C(CC)c2cccc(NS(=O)(=O)c3ccc(C#N)cn3)c2)=C(O)O1 (stereo not given) |  |
| 0.2 | 740 | CCCC1(CCc2ccccc2)CC(=O)C(C(c2cccc(NS(=O)(=O)c3ccc(N)cn3)c2)C(C)(C)C)=C(O)O1 (stereo not given) |  |
| 0.52 | 3000 | CCCC1(CCC)CC(=O)C(C(c2cccc(NS(=O)(=O)c3cn(C)cn3)c2)C2CC2)=C(O)O1 (stereo not given) |  |
| 2.6 | < 3000 | CCCCCC1(CCCCC)CC(=O)C(C(CC)c2cccc(NS(=O)(=O)c3cn(C)cn3)c2)=C(O)O1 (stereo not given) |  |
| 0.71 | 1000 | CCCC1(CCc2ccccc2)CC(=O)C(C(c2cccc(NS(=O)(=O)c3cn(C)cn3)c2)C2CC2)=C(O)O1 (stereo not given) |  |
| 1.7 | 2900 | CCC(C1=C(O)OC(CCC2CC2)(CCC2CC2)CC1=O)c1cccc(NS(=O)(=O)c2cn(C)cn2)c1 (stereo not given) |  |
| 0.04 | 890 | CCC[C@]1(CCc2ccccc2)CC(=O)C([C@H](CC)c2cccc(NS(=O)(=O)c3ccc(C#N)cn3)c2)=C(O)O1 |  |
